Values joined by “and” are separate entries in the source; they are usually repeats but may differ in a detail not shown here. Equal entries are not always repeated. Where two headings read alike, the source gives them in different places.

Data set [1] relates to HepG2 cells. In words: Cell cycle analysis by flow cytometry (propidium iodide). It is filed as cell-based, human. As to conditions: HepG2, 8.8 µM, 48 h. How it is done:
As a control, HepG2 cells were not treated with compound 5.
The effect of compound 5 on the cell cycle phases was investigated using propidium iodide staining and flow cytometric analysis according to the cell cycle kit (PN C03551). Briefly, HepG2 cells were allowed to grow in […], then treated with compound 5 for 48 h. After that, the cells were harvested and cell fixation was performed, cells were centrifuged at 2000 rpm for 5 min then, the supernatant was aspirated. The pellet of fixed cells was resuspended in a 0.5 ml cell cycle kit, vortexed, and incubated at 25 °C for 15 min. Finally, DNA was stained with 50 µg/ml propidium iodide for 30 min. Flow cytometric analysis of cell cycle performed on a COULTER® EPICS® XL™ Flow Cytometer (USA)[67–70].

The test system of data set [2] is normal adult liver epithelial cells (THLE-2 cells). Briefly: MTT cytotoxicity against normal cells. As to conditions: Homo sapiens. It is filed as cell-based. As for the experimental part: (§1) The MCF-7, HepG2, and THLE-2 cell lines were purchased from the American Type Culture Collection (ATCC, Rockville, MD, USA). MCF-7 and HepG2 cells were grown in a medium that contains Roswell Park Memorial Institute (RPMI) 1640 with L-glutamine, 10% foetal bovine serum (FBS), streptomycin (100 μg/ml) and penicillin (100 U/ml). While THLE-2 cells were cultivated in Bronchial Epithelial Growth Media (BEGM) with 10% FBS, 5 ng/ml EGF, and 70 ng/ml phosphoethanolamine. All cells were maintained in a humidified incubator and 5% (v/v) CO2 atmosphere at 37 °C[60].
(§2) The MCF-7, HepG2, and THLE-2 cells were tested for cytotoxicity using the 3–(4, 5-dimethylthiazol-2-yl)-2,5-diphenyltetrazolium bromide (MTT) assay. The ability of living cells to reduce the yellow product MTT to a blue product, formazan, via a reduction reaction that occurs in the mitochondria is used to assess cell population growth. In this assay, 5000 cells/well were plated in a 96-well plate and allowed to grow for 24 h before being treated with over-mentioned suitable media containing increased concentrations of tested compounds (0, 0.1, 1, 10, 100, and 1000 µM). Each experiment was conducted in triplicate. After removing the media, 100 µL of MTT was added to each well and incubated for 4 h. Following that, 100 µL of dimethyl sulfoxide (DMSO) solution was added to solubilise the resulting formazan product, and absorbance at 570 nm was measured using an ELISA microplate reader (Epoc-2 C micro-plate reader, Bio Tek, VT, USA). The IC50 values [the concentration required to inhibit cell viability by 50%] were calculated.

Data set [3] deals with MCF-7 (human breast cancer cell line). Briefly: MTT cytotoxicity assay, MCF-7. The class given is cell-based. As for the experimental part: (§3) MTT assay was used to assess the cytotoxic activities of the synthesised compounds against MCF-7 (human breast cancer cell line) and HepG2 (human hepatocellular carcinoma cell line).
as §1, §2

Data set [4] deals with HepG2 (human hepatocellular carcinoma cell line). In words: MTT cytotoxicity assay, HepG2. The class given is cell-based. How it is done:
as §3, §1, §2

For another data set, the system named is caspase-3. In words: Caspase-3 determination by ELISA. It is filed as cell-based, human. As to conditions: HepG2, 8.8 µM, 24 h. How it is done:
To test the effect of the synthesised compounds on caspase-3 levels, the most promising member 5, at a concentration of 8.8 µM, was applied to the most sensitive cells (HepG2) for 24 h.
The effect of compound 5 on the Caspase-3 level was assessed using an ELISA kit (Catalog # KHO1091) according to manufacturer instructions.

Data set [5] deals with HepG2 cells. Briefly: Annexin-V/propidium iodide apoptosis assay. It is filed as cell-based, human. As to conditions: HepG2, 8.8 µM, 48 h, mean ± SEM of three experiments. How it is done: The apoptosis induced by compound 5 was quantified using an Annexin-V/propidium iodide (PI) staining assay. Compound 5 was applied to HepG2 cells at a concentration of 8.8 µM.
To assess the effect of compound 5 on cell apoptosis, Annexin V–FITC Kit was used according to the kit protocol (PN IM3546), followed by flow cytometric analysis. In brief, HepG2 cells were allowed to grow in […], after that treated for 48 h. then, washed in phosphate-buffered saline and suspended to 5 × 10^5–5 × 10^6 cells/mL in 1X binding buffer. Then we added to 100 µL of the cell suspensions, 5 µL of dissolved PI, and 1 µL of annexin VFITC solution and incubated in the dark for 15 min. Next to that, we added 400 µL of ice-cold 1X binding buffer and mixed gently. Apoptotic cells were determined by flow cytometric analysis on a COULTER® EPICS® XL™ Flow Cytometer (USA)[67]^,[71]^,[72].

A further data set relates to VEGFR-2. Briefly: VEGFR-2 level in HepG2 cells by ELISA. Conditions: VEGFR-2 concentration in HepG2 cells after treatment; control 1773 ± 15.01; mean ± SEM of three experiments. It is filed as cell-based, human. As for the experimental part:
In vitro VEGFR-2 concentration was evaluated using Enzyme-Linked Immunosorbent Assay (ELISA) kit (Cat. NO. EK0544) (AVIVA System Biology, USA) according to manufacturer instructions.

Details of data set [6]: method as in PMID 25895472. Conditions: cited from earlier work.
On the set-up of data set [7]: method as in PMID 33707933. As to conditions: 200 mg once daily, patients with advanced solid tumours; cited from earlier work.
[8] abbreviates: THLE-2, normal liver epithelial cells, MTT, mean ± SEM of at least three experiments, read-out: THLE-2 IC50.
[9] abbreviates: MCF7, MTT assay, mean ± SEM of at least three experiments, read-out: IC50 MCF-7.
Setting [10] is: HepG2, MTT assay, mean ± SEM of at least three experiments, read-out: IC50 HepG2.

For `COc1ccc2cc(C(C)c3nnc(SCC(=O)NCc4ccccc4)o3)ccc2c1` (stereo not drawn) [Compound 5, N-Benzyl-2-{[5-(1-(6-methoxynaphthalen-2-yl)ethyl)-1,3,4-oxadiazol-2-yl]thio}acetamide], the “percentage of cells in Pre-G1 phase” value with HepG2 cells [1] (control 1.76%) came out at 34.12%. Also, in the data set on HepG2 cells [1] (control 27.59%), the “percentage of cells in S phase” value was found to be 42.05%. For the same molecule, the “percentage of cells in G0/G1 phase” value with HepG2 cells [1] (control 51.31%) is on record as 43.91%. Moreover, the IC50 in [2] (setting [8]) was 33.7 ± 1.35 µM; in data set [3] (setting [9]) it was 9.7 ± 0.75 µM; in data set [4] (setting [10]), 8.8 ± 0.69 µM. Besides, the “increase in the level of caspase-3 compared to control cells” value in the data set with caspase-3 was determined as 5.61 fold. In addition, the “Apoptosis (%)” value with HepG2 cells [5] (control 0.51 ± 0.03) was 22.86% and 22.86 ± 1.28 %. Also, the “Necrosis (%)” value in the data set on HepG2 cells [5] (control 1.25 ± 0.08) was 11.26 ± 0.77 %. The “VEGFR-2 (pg/ml) HepG2” value in the data set on VEGFR-2 was 610.4 pg/mL and 610.4 ± 3.46 pg/mL.
Consider `COc1ccc2cc(C(C)c3nnc(SCC(=O)Nc4ccccc4)o3)ccc2c1` (stereo not drawn) [Compound 6, 2-{[5-(1-(6-Methoxynaphthalen-2-yl)ethyl)-1,3,4-oxadiazol-2-yl]thio}-N-phenylacetamide], for which the IC50 in [3] (setting [9]) was 13.2 ± 1.12 µM; in data set [4] (setting [10]) it was 12.3 ± 0.87 µM.
The matching figures for `COc1ccc2cc(C(C)c3nnc(SCC(=O)Nc4ccccc4C)o3)ccc2c1` (stereo not drawn) [Compound 7, 2-{[5-(1-(6-Methoxynaphthalen-2-yl)ethyl)-1,3,4-oxadiazol-2-yl]thio}-N-(o-tolyl)acetamide]: 13.6 ± 1.09 µM and 12.5 ± 1.09 µM.
In the case of `COc1ccc2cc([C@H](C)c3nnc(SCC(=O)Nc4cccc(C)c4)o3)ccc2c1` [Compound 8, 2-{[5-(1-(6-Methoxynaphthalen-2-yl)ethyl)-1,3,4-oxadiazol-2-yl]thio}-N-(m-tolyl) acetamide], the values for the IC50 in [2] (setting [8]), in data set [3] (setting [9]) and in [4] (setting [10]) were 16.7 ± 0.73 µM, 10.4 ± 0.92 µM and 9.5 ± 0.87 µM, respectively. For the same molecule, the “VEGFR-2 (pg/ml) HepG2” value in the data set with VEGFR-2 was 583.7 pg/mL and 583.7 ± 1.93 pg/mL.
In the case of `COc1ccc2cc(C(C)c3nnc(SCC(=O)Nc4ccc(C)cc4)o3)ccc2c1` (stereo not drawn) [Compound 9, 2-{[5-(1-(6-Methoxynaphthalen-2-yl)ethyl)-1,3,4-oxadiazol-2-yl]thio}-N-(p-tolyl)acetamide], the IC50 amounted to 83.5 ± 7.79 µM in data set [3] (MCF7, read-out: IC50 MCF-7) and 83.7 ± 6.52 µM in data set [4] (HepG2, read-out: IC50 HepG2).
In the case of `COc1ccc2cc(C(C)c3nnc(SCC(=O)Nc4c(C)cccc4C)o3)ccc2c1` (stereo not drawn) [Compound 10, N-(2,6-Dimethylphenyl)-2-{[5-(1-(6-methoxynaphthalen-2-yl)ethyl)-1,3,4-oxadiazol-2-yl]thio}acetamide], the IC50 in data set [3] (setting [9]) came to 12.5 ± 0.74 µM; in [4] (setting [10]) it was 11.8 ± 1.04 µM.
Turning to `COc1cccc(NC(=O)CSc2nnc(C(C)c3ccc4cc(OC)ccc4c3)o2)c1` (stereo not drawn) [Compound 11, 2-{[5-(1-(6-Methoxynaphthalen-2-yl)ethyl)-1,3,4-oxadiazol-2-yl]thio}-N-(3-methoxyphenyl)acetamide], the IC50 in data set [3] (setting [9]) amounted to 11.4 ± 0.81 µM; in data set [4] (setting [10]) it was 10.7 ± 0.58 µM.
With `COc1ccc2cc(C(C)c3nnc(SCC(=O)NC4CCCCC4)o3)ccc2c1` (stereo not drawn) [Compound 12, N-Cyclohexyl-2-{[5-(1-(6-methoxynaphthalen-2-yl)ethyl)-1,3,4-oxadiazol-2-yl]thio}acetamide], the concentration for half-maximal inhibition (IC50) in [3] (MCF7, read-out: IC50 MCF-7) was 25.5 ± 2.02 µM; in data set [4] (HepG2, read-out: IC50 HepG2), 24.6 ± 2.81 µM.
As to `COc1ccc2cc(C(C)c3nnc(SCC(=O)Nc4ccc(Cl)cc4)o3)ccc2c1` (stereo not drawn) [Compound 13, N-(4-Chlorophenyl)-2-{[5-(1-(6-methoxynaphthalen-2-yl)ethyl)-1,3,4-oxadiazol-2-yl]thio}acetamide], the IC50 in [3] (MCF7, read-out: IC50 MCF-7) is 11.4 ± 0.99 µM; in [4] (HepG2, read-out: IC50 HepG2), 10.5 ± 0.93 µM.
The matching figures for `COc1ccc2cc(C(C)c3nnc(SCC(=O)Nc4ccc(Cl)cc4Cl)o3)ccc2c1` (stereo not drawn) [Compound 14, N-(2,4-Dichlorophenyl)-2-{[5-(1-(6-methoxynaphthalen-2-yl)ethyl)-1,3,4-oxadiazol-2-yl]thio}acetamide]: 11.2 ± 0.69 µM and 10.4 ± 0.81 µM.
As for `COc1ccc2cc(C(C)c3nnc(SCC(=O)Nc4c(Cl)cccc4Cl)o3)ccc2c1` (stereo not drawn) [Compound 15, N-(2,6-Dichlorophenyl)-2-{[5-(1-(6-methoxynaphthalen-2-yl)ethyl)-1,3,4-oxadiazol-2-yl]thio}acetamide], the concentration for half-maximal inhibition (IC50) in data set [2] (setting [8]) is 34.9 ± 1.86 µM; in [3] (setting [9]), 9.8 ± 0.46 µM; in [4] (setting [10]), 8.4 ± 0.72 µM. The “VEGFR-2 (pg/ml) HepG2” value in the data set with VEGFR-2 was 864.5 pg/mL and 864.5 ± 5.92 pg/mL.
For `COc1ccc2cc([C@H](C)c3nnc(SCC(=O)Nc4ccccc4[N+](=O)[O-])o3)ccc2c1` [Compound 16, 2-{[5-(1-(6-Methoxynaphthalen-2-yl)ethyl)-1,3,4-oxadiazol-2-yl]thio}-N-(2-nitrophenyl) acetamide], the IC50 in [2] (THLE-2, read-out: THLE-2 IC50) was 29.7 ± 2.23 µM; in data set [3] (MCF7, read-out: IC50 MCF-7) it was 9.8 ± 0.8 µM; in data set [4] (HepG2, read-out: IC50 HepG2) it was 8.7 ± 0.72 µM. In addition, the “VEGFR-2 (pg/ml) HepG2” value in the data set on VEGFR-2 is 834.9 pg/mL and 834.9 ± 5.17 pg/mL.
As to `COc1ccc2cc([C@H](C)c3nnc(SCC(=O)Nc4ccc([N+](=O)[O-])cc4)o3)ccc2c1` [Compound 17, 2-{[5-(1-(6-Methoxynaphthalen-2-yl)ethyl)-1,3,4-oxadiazol-2-yl]thio}-N-(4-nitrophenyl) acetamide], the IC50 is 22.8 ± 1.22 µM in [2] (THLE-2, read-out: THLE-2 IC50); 10.4 ± 0.82 µM in data set [3] (MCF7, read-out: IC50 MCF-7); 9.2 ± 0.76 µM in data set [4] (HepG2, read-out: IC50 HepG2). In the data set with VEGFR-2, the “VEGFR-2 (pg/ml) HepG2” value was 1067 pg/mL and 1067 ± 4.91 pg/mL.
Consider `COc1ccc2cc(C(C)c3nnc(SCC(=O)Nc4ccc([N+](=O)[O-])cc4O)o3)ccc2c1` (stereo not drawn) [Compound 18, N-(2-Hydroxy-4-nitrophenyl)-2-{[5-(1-(6-methoxynaphthalen-2-yl)ethyl)-1,3,4-oxadiazol-2-yl]thio}acetamide], for which the IC50 in [2] (setting [8]) was 28.6 ± 2.1 µM; in data set [3] (setting [9]), 9.4 ± 0.64 µM; in data set [4] (setting [10]), 8.7 ± 0.75 µM. In addition, the “VEGFR-2 (pg/ml) HepG2” value with VEGFR-2 was 1004 pg/mL and 1004 ± 5.49 pg/mL.
Consider `CNC(=O)c1cc(Oc2ccc(NC(=O)Nc3ccc(Cl)c(C(F)(F)F)c3)cc2)ccn1` [Sorafenib, reference compound], for which the concentration for half-maximal inhibition (IC50) in [2] (setting [8]) was 27.8 ± 1.74 µM; in data set [3] (setting [9]), 10.8 ± 1.01 µM; in data set [4] (setting [10]) it was 10.2 ± 0.97 µM.
For `COc1cc2nccc(Oc3ccc(NC(=O)Nc4cc(C)on4)c(Cl)c3)c2cc1OC` [Tivozanib], the half-life in data set [6] was 96 h.
In the case of `Cc1[nH]c(/C=C2\C(=O)Nc3ccc(F)cc32)c(C)c1C(=O)N[C@H]1CCN(C(=O)N(C)C)C1` [Vorolanib], the safety profile entry in [7] was “acceptable safety profile”.

These data come from publication PMC8725909, “1,3,4-Oxadiazole-naphthalene hybrids as potential VEGFR-2 inhibitors: design, synthesis, antiproliferative activity, apoptotic effect, and in silico studies” (Journal of Enzyme Inhibition and Medicinal Chemistry, 2021).
